These results are taken from patent US5162571A, “Phenol derivatives, their production and use” (Takeda Chemical Industries, Ltd., priority 1987, dated 1992).

pIC50: −log10 of the molar value.

The term inhibition in vivo denotes how much of the control response was suppressed.

The subject of test [1] is lipid peroxides production in rat brain homogenates. Put plainly: Inhibitory action on lipid peroxides production in rat brain homogenates. The format is biochemical. The following applies: 10^-5 M. The protocol:
Inhibitory action on lipid peroxides production in rat brain homogenates
Method: The male SD rat brain tissue was used as 5% homogenate in phosphate-buffered solution. After incubation of the homogenate for 1 hour at 37° C., the amount of lipid peroxides produced was determined by the thiobarbituric acid method according to the description of Ohkawa et al. (Analytical Biochemistry, 95: 551, 1979)
Test compounds were used as a solution of dimethylsulfoxide. The inhibitory action on lipid peroxide production was expressed as a % inhibition as compared with the amount of production in the vehicle group.

Test [2] deals with T1, Thromboxane A2 (TXA2) receptor (Oryctolagus cuniculus, UniProt Q6WQI8).
T1 construct: contraction by TXA2 mimics U-44069 or U-46619
T1 sequence (Q6WQI8 1-233): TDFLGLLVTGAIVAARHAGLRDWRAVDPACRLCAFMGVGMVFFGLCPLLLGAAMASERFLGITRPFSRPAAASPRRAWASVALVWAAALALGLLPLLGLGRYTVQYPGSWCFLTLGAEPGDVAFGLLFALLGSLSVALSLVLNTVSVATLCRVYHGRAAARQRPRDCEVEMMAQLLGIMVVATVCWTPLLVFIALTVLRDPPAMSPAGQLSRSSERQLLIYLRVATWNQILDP
Put plainly: Thromboxane A2 (TXA2) receptor antagonism: inhibitory effect on contraction of rabbit aorta by TXA2-mimics. The format is cell-based. The following applies: for inhibition at 1 µM: 10^-6 M; for inhibition at 0.1 µM: 10^-7 M. The protocol:
Thromboxane A2 (TXA2) receptor antagonism
Inhibitory effect on contraction of rabbit aorta by thromboxan A2 (TXA2)-mimics
Method: A spiral strip of the rabbit aorta (2-3 mm wide, about 3 cm long) was suspended in Krebs-Henseleit solution under the load of 2 g. The Krebs-Henseleit solution was saturated with a mixed gas of 95%O2 -5%CO2 and warmed at 37° C. Inhibition of the contraction of the vascular strip caused by a TXA2 mimic substance U-44069^1) (10^-7 M) or U-46619^2) (3×10 ^-8 M), by pretreatment with Compound No. 13 30 minutes before was studied.
1) U-44069: (5Z, 9α, 11α, 13E, 15S)-15-hydroxy-9,11-(epoxymethano)-prosta-5,13-dienoic acid (manufacturedby The Upjohn Company in U.S.A.)
2) U-46619: (5Z, 9α, 11α, […], 15S)-15-hydroxy-11,9-(epoxymethano)-prosta-5,13-dienoic acid (manufacturedby Cayman Chemical Company)
In Table 5, "*" represents addition of U-46619.

For test [3], the target named is T2, specific [^3 H] U-46619 binding to guinea pig platelet membrane (Cavia porcellus, UniProt A0A286Y4I8).
T2 construct: Platelet membranes were prepared according to the following procedure; from tissue; host or cells: guinea pig platelet membranes
T2 sequence (A0A286Y4I8 1-347): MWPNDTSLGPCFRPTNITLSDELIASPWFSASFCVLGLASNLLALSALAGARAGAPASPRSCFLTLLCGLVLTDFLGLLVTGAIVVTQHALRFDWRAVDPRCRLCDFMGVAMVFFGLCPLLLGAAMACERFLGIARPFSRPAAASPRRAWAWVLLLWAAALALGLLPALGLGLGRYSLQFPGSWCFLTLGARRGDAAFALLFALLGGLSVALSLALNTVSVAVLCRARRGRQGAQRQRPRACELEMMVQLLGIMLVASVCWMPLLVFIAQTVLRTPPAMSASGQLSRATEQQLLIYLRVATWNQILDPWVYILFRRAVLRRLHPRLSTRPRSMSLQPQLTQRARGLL
Put plainly: Inhibition of specific [^3 H] U-46619 binding to guinea pig platelet membrane. Particulars: [^3 H] U-46619, 25° C., 30 min; read-out: IC50 (Concentration for 50% inhibition). The protocol: Inhibition of specific [^3 H] U-46619 binding to guinea pig platelet membrane
Method: Blood from normal guinea pig was collected into 0.315% citrate solution containing aspirin (final concentration 1 mM) and was centrifuged at 3000 r.p.m. for […]. The PRP (platelet rich plasma) was centrifuged at 4800 r.p.m for 10 min. at 4° C. Platelet membranes were prepared according to the following procedure: In order to remove the residual plasma protein, the platelet pellet was washed once with 30 ml of buffer containing 25 mM Tris-HCl/5 mM MgCl2 (pH 7.4) and recentrifuged to pellet the platelets. The platelets were then resuspended in 20 ml of the same buffer, and the cells were disrupted by sonication. The sonication was performed on ice using a Kontes Sonicator (Vineland, N.J.). The platelets were sonicated for a total of 90 sec. with a 15 sec. burst followed by a 15 sec. intermission. The sonicated mixture was centrifuged at 100,000×g for 1 hour and the membrane fraction was suspended in the same buffer. The protein concentration was adjusted to 1 mg/ml.
The binding assay was performed at 25° C. for 30 min. One ml of the resuspended membrane fraction was incubated with […] of [^3 H] U-46619. The incubation mixture was filtered through a glass fiber membrane (GF/C, whatman) to separate the membrane bound from free [^3 H] U-46619. The membranes were quickly washed twice with 5 ml of cold buffer, mixed with 4 ml of ACS scintillation fluid and counted for [^3 H] U-46619.

Test [4] concerns U-46619 (TXA2 mimic)-induced broncho-constriction. Put plainly: Inhibitory effect on U-46619 (TXA2 mimic)-induced broncho-constriction in guinea pig. The following applies: Cavia porcellus, ** p < 0.01; for inhibition in vivo at 5 mg/kg: 5 mg/kg p.o.; for inhibition in vivo at 0.31 mg/kg: 0.31 mg/kg p.o. The format is in vivo. The protocol: Inhibitory effect on U-46619 (TXA2 mimic)-induced broncho-constrictionin guinea pig
Method: Eight male Hartley guinea pigs were used per one group. The guinea pig anesthetized with urethane (1.5 g/kg, i.p.) was fixed in a dorsal position, subjected to tracheotomy and connected to a respirator through a cannula. A side branch of the tracheal cannula was connected to a respirator (Harvard apparatus rodent respirator Type 680) at the rate of 70 strokes/min. and a constant volume of 3 to 5 ml.
Inflation pressure was kept constant at 10 cm H2 O.
After treatment with gallamine triethiodide (1 mg/kg, i.v.), U-46619 (10 μg/Kg) dissolved in a physiological saline solution was given through a carotid cannula and the airway resistance was measured by the overflow technique of Konzett-Rossler method (Konzett, H. and Rossler, R., Naunyn-Schmiedegerg's Arch, Exp. Path. Pharmak., 195, 71-74 (1940). A test compound was suspended in 5% gum arabic solution and was administered orally 1 hour before the treatment with U-46619.
Alternatively, a test compound was dissolved in aqueous 50% dimethylsulfoxide solution and administered interveneously in the dosage of 0.1 ml/100 g body weight 9 minutes before the treatment of U-46619.

For the next test, the target named is T3, 5-Lipoxygenase (Rattus norvegicus, UniProt P12527).
T3 construct: RBL-1 cells (rat basophilic leukemia cells); endogenous in cells; host or cells: RBL-1 (rat basophilic leukemia cells)
T3 sequence (P12527 1-673): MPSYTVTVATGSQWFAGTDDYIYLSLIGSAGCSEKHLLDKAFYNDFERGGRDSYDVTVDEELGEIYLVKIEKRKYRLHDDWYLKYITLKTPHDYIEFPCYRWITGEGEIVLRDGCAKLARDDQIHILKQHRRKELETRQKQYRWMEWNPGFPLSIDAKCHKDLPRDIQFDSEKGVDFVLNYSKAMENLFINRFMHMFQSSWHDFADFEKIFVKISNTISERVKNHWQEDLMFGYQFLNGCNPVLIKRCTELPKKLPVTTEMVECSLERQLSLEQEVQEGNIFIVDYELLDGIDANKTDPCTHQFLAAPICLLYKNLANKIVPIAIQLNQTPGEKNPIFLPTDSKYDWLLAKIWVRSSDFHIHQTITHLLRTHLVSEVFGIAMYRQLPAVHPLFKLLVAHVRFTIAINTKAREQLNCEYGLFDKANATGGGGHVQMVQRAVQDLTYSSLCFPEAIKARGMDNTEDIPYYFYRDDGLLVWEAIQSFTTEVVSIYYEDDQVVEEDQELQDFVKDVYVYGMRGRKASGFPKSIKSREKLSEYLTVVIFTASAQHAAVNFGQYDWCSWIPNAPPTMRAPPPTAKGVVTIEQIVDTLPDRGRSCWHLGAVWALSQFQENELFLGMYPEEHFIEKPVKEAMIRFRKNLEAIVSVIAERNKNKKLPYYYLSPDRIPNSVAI
Put plainly: 5-Lipoxygenase inhibitory activity (5-HETE production in RBL-1 cells). Particulars: read-out: Inhibitory effect on 5-HETE production (%). In kind it is cell-based. The protocol: 5-Lipoxygenase inhibitory activity
Method: 10^7 RBL-1 cells (rat basophilic leukemia cells) were suspended in 0.5 ml of MCM (mast cell medium), and test solutions (made up of 0.5 ml of MCM, 50 μg of arachidonic acid, 10 μg of A-23187 (calcium ionophore) and 1 μM, 0.01 μM and 0.001 μM as the final concentration of the phenol compound, respectively) prepared previously were added respectively to the suspension, followed by reaction at 37° C. for 20 minutes. After the conclusion of the reaction, 4 ml of ethanol and 1,4-dimethoxy-2-methyl-3-(3-methoxypropyl)naphthalene as the internal reference drug were added to the reaction solution, and the mixture was shaken thoroughly and allowed to stand at room temperature for 10 minutes. Then, it was centrifuged (2000 r.p.m.) for 10 minutes, and the supernatant fluid was separated and concentrated to dryness under reduced pressure. 0.5 ml of 60% aqueous methanol was added to the concentrate, and 100 μl of the resulting solution was taken and subjected to high-performance liquid chromatography to determine the amount of 5-HETE (5-hydroxy-eicosatetraenoic acid). Determination of 5-HETE was made through measurement of an absorption at 237 nm with a UV absorption monitor.
The 5-HETE production inhibitory effect (IE) was expressed by [formula] wherein a is a peak height or peak area corrected by the peak for the internal reference when the phenol compound is not contained; b is a peak height or peak area corrected by the peak for the internal reference when the phenol compound is contained.

[5] abbreviates: U-44069 (10^-7 M)-induced contraction.
Setting [6] is: iv, 1.25 mg/kg i.v., 9 minutes before U-46619.
The mark [7] stands for this setting: addition of U-46619 (3×10^-8 M) (*).

Turning to `Cc1cc(C)c(O)c(C(CCCCCCO)c2ccccc2)c1C` (stereo not drawn) [Compound 5, 7-(2-hydroxy-3,5,6-trimethylphenyl)-7-phenylheptanol], the “Inhibition (%)” value in test [1] was 100%.

As to `CCCCCCC(c1ccc(F)cc1)c1c(C)c(C)cc(C)c1O` (stereo not drawn) [Compound 6], the “Inhibition (%)” value in test [1] turned out to be 100%.

With `Cc1c(C)c(Cl)c(C)c(C(CCCCCC(=O)O)c2ccc(F)cc2)c1O` (stereo not drawn) [Compound 17], in test [2] (setting [5]), the inhibition at 1 µM was 98% and the inhibition at 0.1 µM came to 12%. In addition, the pIC50 in test [3] is 6.08. In test [4] (setting [6]), this compound gave an inhibition in vivo at 1.25 mg/kg of 71%.

In the case of `Cc1c(C)c(Cc2ccccc2)c(C)c(C(CCCCCC(=O)O)c2ccc(F)cc2)c1O` (stereo not drawn) [Compound 19], in test [3], the pIC50 is 6.80.

`Cc1c(C)c(Cc2ccc(F)cc2)c(C)c(C(CCCCCC(=O)O)c2ccc(F)cc2)c1O` (stereo not drawn) [Compound 20]: the “Inhibition (%)” value in test [1] is reported as 74.5%.

As to `Cc1c(C)c2c(c(C(CCCCCC(=O)O)c3ccc(F)cc3)c1O)CCC2` (stereo not drawn) [Compound 22], in test [2] (10^-5 M, U-44069 (10^-7 M)-induced contraction), the inhibition at 10 µM was 100%. In test [2] (setting [5]), the inhibition at 1 µM came out at 45%. In addition, in test [3], the pIC50 is 6.80. The compound also returned an inhibition in vivo at 1.25 mg/kg in test [4] (setting [6]) of 43%. In addition, the inhibition in vivo at 5 mg/kg in test [4] (po, 1 hour before U-46619) came to 83%.

`Cc1c(C)c(CO)c(C)c(C(CCCCCC(=O)O)c2ccc(F)cc2)c1O` (stereo not drawn) [Compound 32, 7-(4-fluorophenyl)-7-(6-hydroxy-3-hydroxymethyl-2,4,5-trimethylphenyl)heptanoic acid]: in test [2] (setting [7]), the inhibition at 1 µM came out at 100% and the inhibition at 0.1 µM was found to be 95%. Moreover, the pIC50 in test [3] was 7.49. The compound further returned an inhibition in vivo at 0.31 mg/kg in test [4] (po, 1 hour before U-46619) of 57%.

For the compound `CC(=O)c1c(C)c(C)c(O)c(C(CCCCCC(=O)O)c2ccc(F)cc2)c1C` (stereo not drawn) [Compound 35, 7-(3-acetyl-6-hydroxy-2,4,5-trimethylphenyl)-7-(4-fluorophenyl)heptanoic acid], in test [2] (setting [7]), the inhibition at 1 µM was found to be 98% and the inhibition at 0.1 µM was found to be 23%. Further, the pIC50 in test [3] is 7.10. At 5 mg/kg the inhibition in vivo in test [4] (po, 1 hour before U-46619) was 76%.

As to `Cc1c(C)c2c(c(C(CCCCCC(=O)O)c3ccc(F)cc3)c1O)CCC2=O` (stereo not drawn) [Compound 37, 7-(6,7-dimethyl-5-hydroxy-1-oxoindan-4-yl)-7-(4-fluorophenyl)heptanoic acid], the inhibition at 0.1 µM in test [2] (setting [7]) was found to be 100%. Also, the pIC50 in test [3] was 7.89. The compound also registered an inhibition in vivo at 1.25 mg/kg in test [4] (po, 1.25 mg/kg p.o., 1 hour before U-46619) of 59%.

Consider `C=CCON=Cc1c(C)c(C)c(O)c(C(CCCCCC(=O)O)c2ccc(F)cc2)c1C` (stereo not drawn) [Compound 52], for which the inhibition at 0.1 µM in test [2] (setting [7]) stood at 96%. Also, in test [3], the pIC50 was 7.85. Moreover, the inhibition in vivo at 0.31 mg/kg in test [4] (po, 1 hour before U-46619) was 36%.

With `Cc1cc(O)c(O)c(C(CCCCCC(=O)O)c2ccc(F)cc2)c1C` (stereo not drawn) [Compound 57, 7-(4-fluorophenyl)-7-(2,3-dihydroxy-5,6-dimethylphenyl)heptanoic acid], the inhibition at 10 µM at 5-Lipoxygenase (10^-5 M) amounted to 100%. On 5-Lipoxygenase (10^-6 M), the inhibition at 1 µM is 90%. Moreover, the inhibition at 0.1 µM at 5-Lipoxygenase (10^-7 M) worked out at 27%.
